From patent publication US11759462B2, “Spirocyclic compounds as tryptophan hydroxylase inhibitors” (priority 2013, dated 2023)

Molecular target: T1, Recombinant human TPH1 (MBP tagged) (Homo sapiens, UniProt P17752)
T1 construct: cloning full length human TPH1 cDNA in to a bacterial pMAL-c5E expression vector; made in house; host or cells: E. coli BL21 (DE3)
T1 sequence (P17752 1-444): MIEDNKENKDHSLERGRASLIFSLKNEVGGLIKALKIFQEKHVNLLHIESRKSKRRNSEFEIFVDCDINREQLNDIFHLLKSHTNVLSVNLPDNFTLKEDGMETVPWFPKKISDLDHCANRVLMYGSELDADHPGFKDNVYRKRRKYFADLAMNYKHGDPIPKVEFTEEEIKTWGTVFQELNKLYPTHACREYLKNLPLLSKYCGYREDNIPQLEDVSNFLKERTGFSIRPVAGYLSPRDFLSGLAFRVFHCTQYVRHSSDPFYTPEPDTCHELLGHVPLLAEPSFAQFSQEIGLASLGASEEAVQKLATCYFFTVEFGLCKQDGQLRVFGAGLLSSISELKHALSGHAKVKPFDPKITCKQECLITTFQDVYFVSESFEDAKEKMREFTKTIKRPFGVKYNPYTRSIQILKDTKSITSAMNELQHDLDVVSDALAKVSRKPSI
Assay: TPH1 in vitro inhibition assay (kinetic fluorescence)
Type: biochemical
Details: read-out: TPH1 Range (TPH1 inhibition IC50)
In short: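 Final mix: 15 nM MBP-TPH1, 30 μM Trp, 36 μM 6-methyltetrahydropterin, 25 μM ferrous ammonium sulfate, 50 mM MES pH 7.1, 1% DMSO, room temperature.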

Row | SMILES | IC50
1 | Nc1nc(OCC2C3CC4CC(C3)CC2C4)cc(N2CCC3(CC2)CN[C@H](C(=O)O)C3)n1 (stereo partly drawn) [Example 38, (S)-8-(6-((1r,3r,5S,7S)-adamantan-2-ylmethoxy)-2-aminopyrimidin-4-yl)-2,8-diazaspiro[4.5]decane-3-carboxylic acid] | 0.3 to 3 µM
2 | Nc1nc(NCc2ccc3ccccc3c2)nc(N2CCC3(CC2)CNC(C(=O)O)C3)n1 (stereo not shown) [Example 39a, 8-(4-Amino-6-((naphthalen-2-ylmethyl)amino)-1,3,5-triazin-2-yl)-2,8-diazaspiro[4.5]decane-3-carboxylic acid] | 0.3 to 3 µM
3 | Nc1nc(NCc2ccc(-c3ccccc3)cc2)nc(N2CCC3(CC2)CNC(C(=O)O)C3)n1 (stereo not shown) [Example 39b, 8-(4-(([1,1′-biphenyl]-4-ylmethyl)amino)-6-amino-1,3,5-triazin-2-yl)-2,8-diazaspiro[4.5]decane-3-carboxylic acid] | 3 to 10 µM
4 | Nc1nc(NCc2ccccc2N2CCCCC2)nc(N2CCC3(CC2)CNC(C(=O)O)C3)n1 (stereo not shown) [Example 39c, 8-(4-amino-6-((2-(piperidin-1-yl)benzyl)amino)-1,3,5-triazin-2-yl)-2,8-diazaspiro[4.5]decane-3-carboxylic acid] | 3 to 10 µM
5 | Nc1nc(NCc2cccc(-c3ccccc3)c2)nc(N2CCC3(CC2)CNC(C(=O)O)C3)n1 (stereo not shown) [Example 39d, 8-(4-(([1,1′-biphenyl]-3-ylmethyl)amino)-6-amino-1,3,5-triazin-2-yl)-2,8-diazaspiro[4.5]decane-3-carboxylic acid] | 3 to 10 µM
6 | C[C@@H](Nc1nc(N)nc(N2CCC3(CC2)CNC(C(=O)O)C3)n1)c1ccc2ccccc2c1 (stereo partly drawn) [Example 39e, 8-(4-amino-6-(((R)-1-(naphthalen-2-yl)ethyl)amino)-1,3,5-triazin-2-yl)-2,8-diazaspiro[4.5]decane-3-carboxylic acid] | 0.3 to 3 µM
7 | Cc1ccn(-c2cc(Cl)ccc2[C@@H](Oc2nc(N)nc(N3CCC4(CC3)CNC(C(=O)O)C4)n2)C(F)(F)F)n1 (stereo partly drawn) [Example 40, 8-(4-amino-6-((R)-1-(4-chloro-2-(3-methyl-H-pyrazol-1-yl)phenyl)-2,2,2-trifluoroethoxy)-1,3,5-triazin-2-yl)-2,8-diazaspiro[4.5]decane-3-carboxylic acid] | 0.3 to 3 µM
8 | Nc1nc(NCc2ccccc2N2CCCCC2)cc(N2CCC3(CC2)CN[C@H](C(=O)O)C3)n1 [Example 41a, (S)-8-(2-Amino-6-((2-(piperidin-1-yl)benzyl)amino)pyrimidin-4-yl)-2,8-diazaspiro[4.5]decane-3-carboxylic acid] | 0.3 to 3 µM
9 | Nc1nc(NCc2c(Oc3ccccc3)cccc2N2CCCCC2)cc(N2CCC3(CC2)CN[C@H](C(=O)O)C3)n1 [Example 41b, (S)-8-(2-amino-6-((2-phenoxy-6-(piperidin-1-yl)benzyl)amino)pyrimidin-4-yl)-2,8-diazaspiro[4.5]decane-3-carboxylic acid] | 0.3 to 3 µM
10 | Nc1nc(NCC23CC4CC(CC(C4)C2)C3)cc(N2CCC3(CC2)CN[C@H](C(=O)O)C3)n1 [Example 41c, (3S)-8-(6-(((3S,5S)-adamantan-1-ylmethyl)amino)-2-aminopyrimidin-4-yl)-2,8-diazaspiro[4.5]decane-3-carboxylic acid] | 3 to 10 µM
11 | CC(Nc1cc(N2CCC3(CC2)CN[C@H](C(=O)O)C3)nc(N)n1)C12CC3CC(CC(C3)C1)C2 (stereo partly drawn) [Example 41d, (3S)-8-(6-((1-((1R,3S,5S)-adamantan-1-yl)ethyl)amino)-2-aminopyrimidin-4-yl)-2,8-diazaspiro[4.5]decane-3-carboxylic acid] | 3 to 10 µM
12 | Nc1nc(O[C@H](c2ccccc2-c2cccc(Cl)c2)C(F)(F)F)cc(N2CCC3(CC2)CN[C@H](C(=O)O)C3)n1 [Example 42a, (S)-8-(2-amino-6-((R)-1-(3′-chloro-[1,1′-biphenyl]-2-yl)-2,2,2-trifluoroethoxy)pyrimidin-4-yl)-2,8-diazaspiro[4.5]decane-3-carboxylic acid] | < 0.05 µM
13 | Nc1nc(O[C@H](c2ccccc2-c2cccc(F)c2)C(F)(F)F)cc(N2CCC3(CC2)CN[C@H](C(=O)O)C3)n1 [Example 42b, (S)-8-(2-amino-6-((R)-2,2,2-trifluoro-1-(3′-fluoro-[1,1′-biphenyl]-2-yl)ethoxy)pyrimidin-4-yl)-2,8-diazaspiro[4.5]decane-3-carboxylic acid] | 0.05 to 0.3 µM
14 | Cc1ccn(-c2cc(Cl)ccc2[C@@H](Oc2cnnc(N3CCC4(CC3)CN[C@H](C(=O)O)C4)c2)C(F)(F)F)n1 [Example 43, (S)-8-(5-((R)-1-(4-chloro-2-(3-methyl-H-pyrazol-1-yl)phenyl)-2,2,2-trifluoroethoxy)pyridazin-3-yl)-2,8-diazaspiro[4.5]decane-3-carboxylic acid] | 3 to 10 µM
15 | Cc1ccn(-c2ccccc2[C@@H](Oc2ccnc(N3CCC4(CC3)CN[C@H](C(=O)O)C4)c2)C(F)(F)F)n1 [Example 44, (S)-8-(4-((R)-2,2,2-trifluoro-1-(2-(3-methyl-1H-pyrazol-1-yl)phenyl)ethoxy)pyridin-2-yl)-2,8-diazaspiro[4.5]decane-3-carboxylic acid] | 0.3 to 3 µM
16 | Cc1ccn(-c2cc(Cl)ccc2[C@@H](Oc2ccnc(N3CCC4(CC3)CN[C@H](C(=O)O)C4)c2)C(F)(F)F)n1 [Example 45, (S)-8-(4-((R)-1-(4-chloro-2-(3-methyl-H-pyrazol-1-yl)phenyl)-2,2,2-trifluoroethoxy)pyridin-2-yl)-2,8-diazaspiro[4.5]decane-3-carboxylic acid] | 0.05 to 0.3 µM
17 | Cc1ccn(-c2cc(Cl)ccc2[C@@H](Oc2cc(Oc3ccccc3)nc(N3CCC4(CC3)CNC(C(=O)O)C4)n2)C(F)(F)F)n1 (stereo partly drawn) [Example 46, 8-(4-((R)-1-(4-chloro-2-(3-methyl-H-pyrazol-1-yl)phenyl)-2,2,2-trifluoroethoxy)-6-phenoxypyrimidin-2-yl)-2,8-diazaspiro[4.5]decane-3-carboxylic acid] | 3 to 10 µM
18 | Nc1nc(OC(c2c(Br)cccc2Br)C(F)(F)F)cc(N2CCC3(CC2)CN[C@H](C(=O)O)C3)n1 (stereo partly drawn) [Example 47, (3S)-8-(2-Amino-6-(1-(2,6-dibromophenyl)-2,2,2-trifluoroethoxy)pyrimidin-4-yl)-2,8-diazaspiro[4.5]decane-3-carboxylic acid] | 0.3 to 3 µM
19 | Nc1nc(O[C@H](c2cc(Br)ccc2Br)C(F)(F)F)cc(N2CCC3(CC2)CN[C@H](C(=O)O)C3)n1 [Example 48, (S)-8-(2-Amino-6-((R)-1-(2,5-dibromophenyl)-2,2,2-trifluoroethoxy)pyrimidin-4-yl)-2,8-diazaspiro[4.5]decane-3-carboxylic acid] | 0.3 to 3 µM
20 | CCCc1ccc(-c2cccc(S(C)(=O)=O)c2)c([C@@H](Oc2cc(N3CCC4(CC3)CN[C@H](C(=O)O)C4)nc(N)n2)C(F)(F)F)c1 [Example 49, (S)-8-(2-Amino-6-((R)-2,2,2-trifluoro-1-(3′-(methylsulfonyl)-4-propyl-[1,1′-biphenyl]-2-yl)ethoxy)pyrimidin-4-yl)-2,8-diazaspiro[4.5]decane-3-carboxylic acid] | < 0.05 µM
21 | C/C=C/c1ccc(-c2cccc(S(C)(=O)=O)c2)c([C@@H](Oc2cc(N3CCC4(CC3)CN[C@H](C(=O)O)C4)nc(N)n2)C(F)(F)F)c1 [Example 50, (S)-8-(2-Amino-6-((R)-2,2,2-trifluoro-1-(3′-(methylsulfonyl)-4-((E)-prop-1-en-1-yl)-[1,1′-biphenyl]-2-yl)ethoxy)pyrimidin-4-yl)-2,8-diazaspiro[4.5]decane-3-carboxylic acid] | 0.05 to 0.3 µM
22 | Cc1ccc(-c2ccc([C@@H](Oc3cc(N4CCC5(CC4)CN[C@H](C(=O)O)C5)nc(N)n3)C(F)(F)F)c(-c3cccc(S(C)(=O)=O)c3)c2)cc1C [Example 52a, (S)-8-(2-Amino-6-((R)-1-(3,4-dimethyl-3″-(methylsulfonyl)-[1,1′:3′,1″-terphenyl]-4′-yl)-2,2,2-trifluoroethoxy)pyrimidin-4-yl)-2,8-diazaspiro[4.5]decane-3-carboxylic acid] | < 0.05 µM
23 | CS(=O)(=O)c1cccc(-c2cc(-c3ccc4ncccc4c3)ccc2[C@@H](Oc2cc(N3CCC4(CC3)CN[C@H](C(=O)O)C4)nc(N)n2)C(F)(F)F)c1 [Example 52b, (S)-8-(2-amino-6-((R)-2,2,2-trifluoro-1-(3′-(methylsulfonyl)-5-(quinolin-6-yl)-[1,1′-biphenyl]-2-yl)ethoxy)pyrimidin-4-yl)-2,8-diazaspiro[4.5]decane-3-carboxylic acid] | < 0.05 µM
24 | C/C=C/c1ccc([C@@H](Oc2cc(N3CCC4(CC3)CN[C@H](C(=O)O)C4)nc(N)n2)C(F)(F)F)c(-c2cccc(S(C)(=O)=O)c2)c1 [Example 53, (S)-8-(2-Amino-6-((R)-2,2,2-trifluoro-1-(3′-(methylsulfonyl)-5-((E)-prop-1-en-1-yl)-[1,1′-biphenyl]-2-yl)ethoxy)pyrimidin-4-yl)-2,8-diazaspiro[4.5]decane-3-carboxylic acid] | < 0.05 µM
25 | CCCc1ccc([C@@H](Oc2cc(N3CCC4(CC3)CN[C@H](C(=O)O)C4)nc(N)n2)C(F)(F)F)c(-c2cccc(S(C)(=O)=O)c2)c1 [Example 54a, (S)-8-(2-Amino-6-((R)-2,2,2-trifluoro-1-(3′-(methylsulfonyl)-5-propyl-[1,1′-biphenyl]-2-yl)ethoxy)pyrimidin-4-yl)-2,8-diazaspiro[4.5]decane-3-carboxylic acid] | < 0.05 µM
